Columns and labels:
[1] = not given; remark: listed apart in the source
[2] = method code SF-HPLC, from DOI: 10.1002/jps.10072, PMID: 11920751; conditions: pH 7.4
[3] = method code SF-HPLC, from DOI: 10.1016/0378-5173(89)90028-8
[4] = method code SF-AS, from Dallet, P.; Dubost, J.; Colleter, J.; Audry, E.; Creuzet, M. (1985). QSAR in a series of alpha-adrenolitic molecules: optimization of physicochemical parameters. Eur J Med Chem, 20(6)551-557.
[5] = method code SF-HPLC, from DOI: 10.1016/s0021-9673(99)01336-9, PMID: 10757301
[6] = method code SF-AS, from DOI: 10.1021/jm00395a009, PMID: 3681892; conditions: pH 7.4
[7] = method code SF-RC, from DOI: 10.1016/j.nucmedbio.2006.06.006, PMID: 16934700; conditions: pH 7.4
[8] = method code SF-AS, from DOI: 10.1021/jm00296a014, PMID: 5418493
[9] = method code SF-RC, from DOI: 10.1016/s0969-8051(02)00326-8, PMID: 12234587; conditions: pH 7.4
[10] = method code SF, from DOI: 10.1016/0168-3659(92)90078-6; conditions: pH 7.0
[11] = not given; remark: listed apart in the source
[12] = not given; remark: listed apart in the source
[13] = method code SF-AS, from DOI: 10.1248/cpb.32.5003, PMID: 6534549
[14] = not given; remark: listed apart in the source
[15] = method code SF-AS, from DOI: 10.1002/etc.5620180606
[16] = method code SF, from DOI: 10.1021/jm00237a002, PMID: 1133810; conditions: pH 7.2
[17] = pH 7.4
[18] = method code SF-RC, from Godoy, N.; Valle, L.; Mena, P.; Gil, M. (1989). Synthesis, labeling and biodistribution of 99mTc-labelled bromoimino diacetic acids. Nucleotecnica, 9(17)25-32.
[19] = method code SF-AS, from DOI: 10.1163/156856796x00098; conditions: pH 7.4
[20] = method code SF-AS, from DOI: 10.1002/chin.198428254
[21] = not given; remark: listed apart in the source

Q: For Cc1nc(S(=O)(=O)Nc2c(F)cccc2F)nn1-c1ccccc1, which logP is on record?
A: 3.2

Q: With CCCCOP(=O)(OCCCC)Oc1ccccc1 as the compound, how does the logP [1] read?
A: 3.23

Q: For CC(=O)OCC(COC(C)=O)OCn1cnc2c(=O)[nH]c(N)nc21, which logD [2] is on record?
A: -0.78

Q: With CCN(CC)C(=O)COC(=O)c1cn(CC)c2nc(C)ccc2c1=O as the compound, how does the logP [3] read?
A: 1.43

Q: With Cc1cc(OCCN(C)C)c(C(C)C)cc1OS(=O)(=O)CC12CCC(CC1=O)C2(C)C (centres undefined) as the compound, how does the logP [4] read?
A: 4.37

Q: With CO/N=C(\C(=O)N[C@@H]1C(=O)N2C(C(=O)O)=C(COC(C)=O)CS[C@H]12)c1csc(N)n1 as the compound, how does the logP [5] read?
A: -0.13

Q: For O=c1c(F)cn(C2CCCO2)c(=O)n1Cc1ccccc1 (centres undefined), which logD [6] is on record?
A: 1.38

Q: With FCCCOc1ccc(-c2cc3ccccc3s2)cc1 as the compound, how does the logD [7] read?
A: 2.88

Q: Which logP [4] does the source give for CC(=O)Oc1ccc(OCCN(C)C)cc1C here?
A: 1.64

Q: With O=C(O)C1c2ccccc2-c2ccccc21 as the compound, how does the logP [8] read?
A: 2.8

Q: Which logD [9] does the source give for Oc1ccc(-c2cc3cc(I)ccc3o2)cc1 here?
A: 2.97

Q: With CC(=O)OCC1=C(C(=O)O)N2C(=O)[C@@H](NC(=O)CSc3ccncc3)[C@H]2SC1 as the compound, how does the logP [5] read?
A: -0.15

Q: With CCCCC(=O)OC[C@@H]1CC[C@H](n2cnc3c(=O)[nH]cnc32)O1 as the compound, how does the logD [10] read?
A: 0.65

Q: For Cc1c2ccccc2c(C)c2ccccc12, which logP [11] is on record?
A: 5.25

Q: Which logP [12] does the source give for CCCC1COC(Cn2cncn2)(c2ccc(Cl)cc2Cl)O1 (centres undefined) here?
A: 3.4

Q: With COc1ccccc1NC(=O)Cc1ccccc1 as the compound, how does the logP [13] read?
A: 2.68

Q: For Clc1cccc(Cl)c1C=NN=c1ccn(CCc2c(Cl)cccc2Cl)cc1, which logP [14] is on record?
A: 4

Q: With CCCCC(CC)COP(=O)(Oc1ccccc1)Oc1ccccc1 (centres undefined) as the compound, how does the logP [1] read?
A: 5

Q: Which logP [15] does the source give for Nc1c(Cl)c(Cl)c(N)c2c1C(=O)c1ccccc1C2=O here?
A: 4.56

Q: With CCCOc1cnc(NS(=O)(=O)c2ccccc2)nc1 as the compound, how does the logD [16] read?
A: 1.14

Q: Which logP does the source give for Cc1ccc(Cl)c(NS(=O)(=O)c2nc(C)n(-c3ccccc3)n2)c1Cl here?
A: 4.4

Q: With CSC[S@](=O)C[C@H](CO)NC(=O)/C=C/c1c(C)[nH]c(=O)[nH]c1=O as the compound, how does the logD [17] read?
A: -1.71

Q: With CCCC(=O)OC[C@@H]1CC[C@H](n2cnc3c(=O)[nH]cnc32)O1 as the compound, how does the logD [10] read?
A: 0.11

Q: Which logP [18] does the source give for CCCCc1ccc(NC(=O)CN(CC(=O)O)CC(=O)O)cc1Br here?
A: -0.1

Q: Which logD [16] does the source give for CCCCOc1cnc(NS(=O)(=O)c2ccccc2)nc1 here?
A: 1.41

Q: For FC(F)C(F)(F)OCC1COC(Cn2cncn2)(c2ccc(Cl)cc2Cl)O1 (centres undefined), which logP [12] is on record?
A: 3.2

Q: With CCOP(=O)(CC(C)(C)[N+]([O-])=Cc1ccc(Cl)cc1)OCC as the compound, how does the logD [19] read?
A: 2.29

Q: Which logD [10] does the source give for Cc1ccccc1C(=O)OCC1CCC(n2cnc3c(O)ncnc32)O1 (centres undefined) here?
A: 1.02

Q: With CCOP(=O)(CC(C)(C)[N+]([O-])=Cc1cc[n+]([O-])cc1)OCC as the compound, how does the logD [19] read?
A: -0.74

Q: Which logD [2] does the source give for CCCCC(=O)OCC(COC(=O)CCCC)OCn1cnc2c(=O)[nH]c(N)nc21 here?
A: 0.83

Q: Which logP [20] does the source give for O=C(NCCN1CCN2Cc3[nH]c4ccccc4c3CC2C1)c1ccccc1[N+](=O)[O-] (centres undefined) here?
A: 1.8

Q: For COc1ccc(-c2cc3ccccc3s2)cc1, which logD [7] is on record?
A: 3.07

Q: Which logP [4] does the source give for Cc1cc(OCCNCC2CC(=O)c3ccccc3C2=O)c(C(C)C)cc1O (centres undefined) here?
A: 4.25

Q: For FCCCNc1ccc(-c2cc3ccccc3s2)cc1, which logD [7] is on record?
A: 3.56

Q: Which logP [8] does the source give for O=C(O)C1c2ccccc2Oc2ccccc21 here?
A: 2.23

Q: Which logD [2] does the source give for CCCC(=O)OCC(CO)OCn1cnc2c(=O)[nH]c(N)nc21 (centres undefined) here?
A: -0.3

Q: For Nc1c(Oc2ccc(CN3CCCCCC3=O)cc2)cc(O)c2c1C(=O)c1ccccc1C2=O, which logP [15] is on record?
A: 5.3

Q: Which logP [21] does the source give for CCN(CC)Cc1cc(Nc2ccnc3cc(Cl)ccc23)ccc1O here?
A: 4.2

Q: Which logP [18] does the source give for Cc1cc(C)c(NC(=O)CN(CC(=O)O)CC(=O)O)c(C)c1Br here?
A: -0.11

Reference: the SangsterLogP compilation
